Measured values published in patent US8361968B2 (Takeda Pharmaceutical Company Limited, priority 2002, dated 2013).
Numbered stars: 1 amine (or outer) side, 2 acyl side, 3 side chain; on linkers, the order of the positions; unused ones are H or OH. Square brackets hold non-standard residues; d marks the D form. Peptide text beside a SMILES is read from it. X1 = O=C([C@H](Cc1ccc2ccccc2n1)N[*:1])[*:2]; Arg(Me) = CNC(=N)NCCC[C@H](N)C(=O)O; Cha = N[C@@H](CC1CCCCC1)C(=O)O; azaGly = NNC(=O)O

Molecular target: hOT7T175 (Homo sapiens, UniProt Q969F8, L364H)
Test: Intracellular Ca ion level-increasing activity using FLIPR in hOT7T175/CHO
Format: cell-based
Parameters: expressed in transfected cells; host or cells: CHO/dhfr- cells, obtained from ATCC
Settings: relative, Metastin (1-54) = 1
Method: Assay for Intracellular Ca Ion Level-Increasing Activity Using Flipr
In accordance with the method described in JPA 2000-312590, the intracellular Ca ion level-increasing activity was measured using FLIPR.
The stable expression cell line hOT7T175 was acquired by transduction of expression plasmid pAK-rOT175 for animal cells into CHO/dhff cells, using CellPhect Transfection Kit (Amersham Pharmacia Biotech, Inc.). First, 240 μL of Buffer A (attached to CellPhect Transfection Kit) was added to 9.6 μg of plasmid DNA dissolved in 240 μl of distilled water, followed by stirring. After settling the mixture for 10 minutes, 480 μL of Buffer B (attached to CellPhect Transfection Kit) was added to the mixture, which was vigorously stirred to form DNA-containing liposomes. Then, 4×10^5 CHO/dhff cells (obtained from ATCC) were inoculated on a 60 mm Petri dish. […] After culturing the cells at 37° C. for 6 hours in 5% carbon dioxide gas, the cells were washed twice with serum-free Ham's F-12 medium and 3 ml of 15% glycerol was added to the cells in the Petri dish to treat for 2 minutes. The cells were again washed twice with serum-free Ham's F-12 medium followed by incubation in Ham's F-12 medium supplemented with 10% fetal bovine serum at 37° C. for 15 hours in 5% carbon dioxide gas. The cells were dispersed by trypsin treatment and recovered from the Petri dish. The recovered cells were inoculated on a 6-well plate in 1.25×10^4 cells/well and incubation was initiated at 37° C. in Dulbecco's modified Eagle medium (DMEM) medium (Nissui Seiyaku Co., Ltd.) containing 10% dialyzed fetal bovine serum (JRH BIOSCIENCES, Inc.) under 5% carbon dioxide gas. […] The medium was exchanged on Days 1 and 2 to remove the cells died.
The intracellular Ca ion level-increasing activity of the synthetic peptide in hOT7T175/CHO was determined using FLIPR (Molecular Devices, Inc.).
hOT7T175/CHO was subcultured in DMEM supplemented with 10% dialyzed fetal bovine serum (hereinafter abbreviated as dFBS) and provided for the experiment (hereinafter abbreviated as 10% dFBS/DMEM). The hOT7T175/CHO was suspended in 10% dFBS-DMEM in 15×10^4 cells/ml. The suspension was inoculated on a 96-well plate for FLIPR (Black Plate Clear Bottom, Coster, Inc.) at 200 μL each (3.0×10^4 cells/200 μL/well), followed by incubation at 37° C. overnight in a 5% CO2 incubator (hereinafter simply referred to as the cell plate). Then, 21 ml of HANKS/HBSS (9.8 g of HANKS, 0.35 g of sodium hydrogencarbonate, 20 ml of 1M HEPES; after adjusting the pH to 7.4 with 1N sodium hydroxide, the mixture was sterilized by filtration), 210 μl of 250 mM Probenecid and […] of fetal bovine serum (FBS) were mixed (HANKS/HBSS-Probenecid-FBS).
Furthermore, 2 vials of Fluo3-AM (50 μug/vial) were dissolved in 21 μL of dimethylsulfoxide and 21 μL of 20% Pluronic acid. The resulting solution was added to and mixed with 10 ml of HANKS/HBSS-Probenecid-FBS described above. After the culture medium was removed, the mixture was dispensed onto the cell plate in 100 μL each/well, followed by incubation at 37° C. for an hour in a 5% CO2 incubator (pigment loading). The peptide was dissolved in dimethylsulfoxide in 1×10^−3 M. The peptide solution was diluted with HANKS/HBSS containing 2.5 mM Probenecid, 0.2% BSA and 0.1% CHAPS.

Sequence of hOT7T175 (Q969F8 whole entry L364H): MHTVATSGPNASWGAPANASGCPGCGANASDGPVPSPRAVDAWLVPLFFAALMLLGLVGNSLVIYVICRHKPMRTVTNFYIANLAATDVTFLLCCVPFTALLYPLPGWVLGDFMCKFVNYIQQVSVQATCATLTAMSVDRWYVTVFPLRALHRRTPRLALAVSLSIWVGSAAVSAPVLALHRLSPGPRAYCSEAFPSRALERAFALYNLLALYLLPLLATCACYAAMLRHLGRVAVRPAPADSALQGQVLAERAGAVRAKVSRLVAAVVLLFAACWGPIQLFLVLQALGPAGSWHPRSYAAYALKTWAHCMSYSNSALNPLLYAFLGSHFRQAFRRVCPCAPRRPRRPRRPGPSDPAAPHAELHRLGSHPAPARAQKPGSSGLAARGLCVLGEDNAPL

SMILES | Specific Activity (intracellular Ca ion level-increasing activity)
CNC(=N)NCCC[C@H](NC(=O)[C@H](CC(C)C)NC(=O)CNC(=O)[C@H](Cc1ccccc1)NC(=O)[C@H](CO)NC(=O)[C@H](CC(N)=O)NC(=O)[C@H](Cc1c[nH]c2ccccc12)NC(=O)[C@H](CC(N)=O)NC(=O)[C@H](N)Cc1ccc(O)cc1)C(=O)N[C@@H](Cc1c[nH]c2ccccc12)C(N)=O [Compound No. 174] (H-[dY]NWNSFGL[Arg(Me)]W-NH2) | 10
CC(C)C[C@H](NC(=O)NNC(=O)[C@H](Cc1ccccc1)NC(=O)[C@H](CO)NC(=O)[C@H](CC(N)=O)NC(=O)[C@H](Cc1c[nH]c2ccccc12)NC(=O)[C@H](CC(N)=O)NC(=O)[C@@H](N)Cc1ccc(O)cc1)C(=O)N[C@@H](CCCNC(=N)N)C(=O)N[C@@H](Cc1ccccc1)C(N)=O [Compound No. 176, Tyr-Asn-Trp-Asn-Ser-Phe-AzaGly-Leu-Arg-Phe-NH2] | 5
CNC(=N)NCCC[C@H](NC(=O)[C@H](CC(C)C)NC(=O)NNC(=O)[C@H](Cc1ccccc1)NC(=O)[C@H](CO)NC(=O)[C@H](CC(N)=O)NC(=O)[C@H](CC1CCCCC1)NC(=O)[C@H](CC(N)=O)NC(=O)[C@H](N)Cc1ccc(O)cc1)C(=O)N[C@@H](Cc1ccccc1)C(N)=O [Compound No. 190, D-Tyr-Asn-Cha-Asn-Ser-Phe-AzaGly-Leu-Arg(Me)-Phe-NH2] (H-[dY]N[Cha]NSF[azaGly]L[Arg(Me)]F-NH2) | 10
CCNC(=N)NCCC[C@H](NC(=O)[C@H](CC(C)C)NC(=O)CNC(=O)[C@H](Cc1ccccc1)NC(=O)[C@H](CO)NC(=O)[C@H](CC(N)=O)NC(=O)[C@H](Cc1c[nH]c2ccccc12)NC(=O)[C@H](CC(N)=O)NC(=O)[C@H](N)Cc1ccc(O)cc1)C(=O)N[C@@H](Cc1ccccc1)C(N)=O [Compound No. 192] | 1
CCCNC(=N)NCCC[C@H](NC(=O)[C@H](CC(C)C)NC(=O)CNC(=O)[C@H](Cc1ccccc1)NC(=O)[C@H](CO)NC(=O)[C@H](CC(N)=O)NC(=O)[C@H](Cc1c[nH]c2ccccc12)NC(=O)[C@H](CC(N)=O)NC(=O)[C@H](N)Cc1ccc(O)cc1)C(=O)N[C@@H](Cc1ccccc1)C(N)=O [Compound No. 193] | 001
CC(=O)NC(=N)NCCC[C@H](NC(=O)[C@H](CC(C)C)NC(=O)CNC(=O)[C@H](Cc1ccccc1)NC(=O)[C@H](CO)NC(=O)[C@H](CC(N)=O)NC(=O)[C@H](Cc1c[nH]c2ccccc12)NC(=O)[C@H](CC(N)=O)NC(=O)[C@H](N)Cc1ccc(O)cc1)C(=O)N[C@@H](Cc1ccccc1)C(N)=O [Compound No. 194] | 1
CC(C)C[C@H](NC(=O)CNC(=O)[C@H](Cc1ccccc1)NC(=O)[C@H](CO)NC(=O)[C@H](CC(N)=O)NC(=O)[C@H](Cc1c[nH]c2ccccc12)NC(=O)[C@H](CC(N)=O)NC(=O)[C@@H](N)Cc1ccc(O)cc1)C(=O)N[C@@H](CCCNC(=N)N)C(=O)N[C@@H](Cc1ccc(F)c(F)c1)C(N)=O [Compound No. 198] | 10
CC(C)C[C@H](NC(=O)CNC(=O)[C@H](Cc1ccccc1)NC(=O)[C@H](CO)NC(=O)[C@H](CC(N)=O)NC(=O)[C@H](Cc1c[nH]c2ccccc12)NC(=O)[C@H](CC(N)=O)NC(=O)[C@@H](N)Cc1ccc(O)cc1)C(=O)N[C@@H](CCCNC(=N)N)C(=O)N[C@@H](Cc1ccc2ccccc2n1)C(N)=O [Compound No. 201] (H-YNWNSFGLR[X1]-NH2) | 1
CNC(=N)NCCC[C@H](NC(=O)[C@H](CC(C)C)NC(=O)CNC(=O)[C@H](CC1CCCCC1)NC(=O)[C@H](CO)NC(=O)[C@H](CC(N)=O)NC(=O)[C@H](Cc1c[nH]c2ccccc12)NC(=O)[C@H](CC(N)=O)NC(=O)[C@H](N)Cc1ccc(O)cc1)C(=O)N[C@@H](Cc1ccccc1)C(N)=O [Compound No. 203, D-Tyr-Asn-Trp-Asn-Ser-Cha-Gly-Leu-Arg(Me)-Phe-NH2] (H-[dY]NWNS[Cha]GL[Arg(Me)]F-NH2) | 10
CNC(=N)NCCC[C@H](NC(=O)[C@H](CC(C)C)NC(=O)[C@H](C)NC(=O)[C@H](Cc1ccccc1)NC(=O)[C@H](CO)NC(=O)[C@H](CC(N)=O)NC(=O)[C@H](Cc1c[nH]c2ccccc12)NC(=O)[C@H](CC(N)=O)NC(=O)[C@H](N)Cc1ccc(O)cc1)C(=O)N[C@@H](Cc1ccccc1)C(N)=O [Compound No. 204] (H-[dY]NWNSFAL[Arg(Me)]F-NH2) | 5
CC[C@H](C)[C@H](NC(=O)[C@H](CC(N)=O)NC(=O)[C@H](N)Cc1ccc(O)cc1)C(=O)N[C@@H](CC(N)=O)C(=O)N[C@@H](CO)C(=O)N[C@@H](Cc1ccccc1)C(=O)NCC(=O)N[C@@H](CC(C)C)C(=O)N[C@@H](CCCNC(=N)NC)C(=O)N[C@@H](Cc1ccccc1)C(N)=O [Compound No. 206] (H-[dY]NINSFGL[Arg(Me)]F-NH2) | 10
CNC(=N)NCCC[C@H](NC(=O)[C@H](CC(C)C)NC(=O)CNC(=O)[C@H](Cc1ccccc1)NC(=O)[C@H](CO)NC(=O)[C@@H](NC(=O)[C@H](Cc1c[nH]c2ccccc12)NC(=O)[C@H](CC(N)=O)NC(=O)[C@H](N)Cc1ccc(O)cc1)[C@@H](C)O)C(=O)N[C@@H](Cc1ccccc1)C(N)=O [Compound No. 208] (H-[dY]NWTSFGL[Arg(Me)]F-NH2) | 1
CNC(=N)NCCC[C@H](NC(=O)[C@H](CC(C)C)NC(=O)CNC(=O)[C@H](Cc1ccccc1)NC(=O)[C@H](CO)NC(=O)[C@H](C)NC(=O)[C@H](Cc1c[nH]c2ccccc12)NC(=O)[C@H](CC(N)=O)NC(=O)[C@H](N)Cc1ccc(O)cc1)C(=O)N[C@@H](Cc1ccccc1)C(N)=O [Compound No. 210] (H-[dY]NWASFGL[Arg(Me)]F-NH2) | 1
CNC(=N)NCCC[C@H](NC(=O)[C@H](CC(C)C)NC(=O)CNC(=O)[C@H](Cc1ccccc1)NC(=O)[C@@H](NC(=O)[C@H](CC(N)=O)NC(=O)[C@H](Cc1c[nH]c2ccccc12)NC(=O)[C@H](CC(N)=O)NC(=O)[C@H](N)Cc1ccc(O)cc1)[C@@H](C)O)C(=O)N[C@@H](Cc1ccccc1)C(N)=O [Compound No. 211] (H-[dY]NWNTFGL[Arg(Me)]F-NH2; N-terminus assumed) | 10
CNC(=N)NCCC[C@H](NC(=O)[C@H](CC(C)C)NC(=O)CNC(=O)[C@H](Cc1ccccc1)NC(=O)[C@H](C)NC(=O)[C@H](CC(N)=O)NC(=O)[C@H](Cc1c[nH]c2ccccc12)NC(=O)[C@H](CC(N)=O)NC(=O)[C@H](N)Cc1ccc(O)cc1)C(=O)N[C@@H](Cc1ccccc1)C(N)=O [Compound No. 212] (H-[dY]NWNAFGL[Arg(Me)]F-NH2) | 10
CNC(=N)NCCC[C@H](NC(=O)[C@H](CC(C)C)NC(=O)CNC(=O)[C@H](Cc1ccccc1)NC(=O)[C@H](CO)NC(=O)[C@H](CC(N)=O)NC(=O)[C@H](Cc1c[nH]c2ccccc12)NC(=O)[C@H](CCC(N)=O)NC(=O)[C@H](N)Cc1ccc(O)cc1)C(=O)N[C@@H](Cc1ccccc1)C(N)=O [Compound No. 214] (H-[dY]QWNSFGL[Arg(Me)]F-NH2) | 10
